Assays:
field sandbur = test: Test G preemergence test; format: in vivo, Cenchrus incertus; details: scale 0 to 100
common chickweed = test: Test F preemergence test; format: in vivo, Stellaria media; details: scale 0 to 100
Method in brief: (§1)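 Compounds in a non-phytotoxic solvent formulation with surfactant were applied before emergence after sowing, or, for sugarcane, also postemergence. Evaluation was visual, against controls, after 14 to 21 greenhouse days.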

common sowthistle = test: Test F preemergence test; format: in vivo, Sonchus oleraceous; details: scale 0 to 100
Method in brief: as §1

wild oat = test: Test D preemergence test; format: in vivo, Avena fatua; details: scale 0 to 100
From the text: (§2) Seeds of plant species selected from annual bluegrass (Poa annua), blackgrass (Alopecurus myosuroides), downy bromegrass (Bromus tectorum), field violet (Viola arvensis), green foxtail (Setaria viridis), Italian ryegrass (Lolium multiflorum), littleseed canarygrass (Phalaris minor), spring wheat (Triticum aestivum), wild oat (Avena fatua), […]), winter barley (Hordeum vulgare), and winter wheat (Triticum aestivum) were planted and treated preemergence with test chemicals formulated in a non-phytotoxic solvent mixture which included a surfactant. […] A dash (-) response means no test result.

winter barley = test: Test C postemergence test; format: in vivo, Hordeum vulgare; details: for Plant response rating, Barley: scale 0 to 100, 0 no effect, 100 complete control
Method in brief: (§3)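 Postemergence sprays of formulated test chemicals on plants 2 to 18 cm tall (1- to 4-leaf stage). Greenhouse hold for 13 to 15 days, then visual rating of each species against untreated controls; dash means no test result.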

barnyardgrass = test: Test G preemergence test; format: in vivo, Echinochloa crus-galli; details: scale 0 to 100
Russian thistle = test: Test F preemergence test; format: in vivo, Salsola kali; details: scale 0 to 100
Method in brief: as §1

canarygrass = test: Test C postemergence test; format: in vivo, Phalaris minor; details: for Plant response rating, Canarygrass: scale 0 to 100, 0 no effect, 100 complete control
Method in brief: as §3

corn = test: Test G preemergence test; format: in vivo, Zea mays; details: scale 0 to 100
soybean = test: Test G preemergence test; format: in vivo, Glycine max; details: scale 0 to 100
Italian ryegrass = test: Test D preemergence test; format: in vivo, Lolium multiflorum; details: scale 0 to 100
From the text: as §2

giant foxtail = test: Test G preemergence test; format: in vivo, Setaria faberii; details: scale 0 to 100
cotton = test: Test G preemergence test; format: in vivo, Gossypium hirsutum; details: scale 0 to 100
annual bluegrass = test: Test D preemergence test; format: in vivo, Poa annua; details: scale 0 to 100
From the text: as §2

chickweed = test: Test C postemergence test; format: in vivo, Stellaria media; details: for Plant response rating, Chickweed: scale 0 to 100, 0 no effect, 100 complete control
Method in brief: as §3

millet = test: Test G preemergence test; format: in vivo, Panicum miliaceum; details: scale 0 to 100

## Cc1cc[n+]([O-])c([S+]([O-])Cc2c(C(F)(F)F)nn(C)c2OC(F)F)c1 (stereo not drawn) [Compound 1]
Field sandbur; 31 g ai/ha
  Plant response rating, Sandbur: 0
Field sandbur; 62 g ai/ha
  Plant response rating, Sandbur: 40
Field sandbur; 125 g ai/ha
  Plant response rating, Sandbur: 65
Field sandbur; 250 g ai/ha
  Plant response rating, Sandbur: 100
Common chickweed; 8 g ai/ha, preemergence
  Plant response rating, Chickweed: 40
Common chickweed; 62 g ai/ha, Preemergence
  Chickweed plant response rating: 100
Common chickweed; Preemergence, 16 g ai/ha
  Plant response rating, Chickweed: 60
Common chickweed; Preemergence, 31 g ai/ha
  Plant response rating, Chickweed: 98
Common sowthistle; 8 g ai/ha, preemergence
  Plant response rating, Sowthistle: 0
Common sowthistle; 16 g ai/ha, preemergence
  Plant response rating, Sowthistle: 0
Common sowthistle; 62 g ai/ha, Preemergence
  Sowthistle plant response rating: 70
Common sowthistle; Preemergence, 31 g ai/ha
  Plant response rating, Sowthistle: 30
Wild oat; 31 g ai/ha
  Plant response rating, Oat, Wild: 0
Wild oat; 62 g ai/ha
  Plant response rating, Oat, Wild: 0
Wild oat; 125 g ai/ha
  Plant response rating, Oat, Wild: 20
Wild oat; 250 g ai/ha
  Plant response rating, Oat, Wild: 40
Winter barley; 31 g ai/ha
  Plant response rating (0 to 100), Barley: 0
Winter barley; 62 g ai/ha
  Plant response rating, Barley: 0
Winter barley; 125 g ai/ha
  Plant response rating, Barley: 0
Winter barley; 250 g ai/ha
  Plant response rating, Barley: 0
barnyardgrass; 31 g ai/ha
  Plant response rating, Barnyardgrass: 20
barnyardgrass; 62 g ai/ha
  Plant response rating, Barnyardgrass: 65
barnyardgrass; 125 g ai/ha
  Plant response rating, Barnyardgrass: 100
barnyardgrass; 250 g ai/ha
  Plant response rating, Barnyardgrass: 100
Russian thistle; 8 g ai/ha, preemergence
  Plant response rating, Russian Thistle: 0
Russian thistle; Preemergence, 16 g ai/ha
  Plant response rating, Russian Thistle: 0
Russian thistle; Preemergence, 31 g ai/ha
  Plant response rating, Russian Thistle: 0
canarygrass; 31 g ai/ha
  Plant response rating (0 to 100), Canarygrass: 0
canarygrass; 62 g ai/ha
  Plant response rating, Canarygrass: 0
canarygrass; 125 g ai/ha
  Plant response rating, Canarygrass: 0
canarygrass; 250 g ai/ha
  Plant response rating, Canarygrass: 0
corn; 31 g ai/ha
  Plant response rating, Corn: 0
corn; 62 g ai/ha
  Plant response rating, Corn: 5
corn; 125 g ai/ha
  Plant response rating, Corn: 10
corn; 250 g ai/ha
  Plant response rating, Corn: 45
soybean; 31 g ai/ha
  Plant response rating, Soybean: 0
soybean; 62 g ai/ha
  Plant response rating, Soybean: 20
soybean; 125 g ai/ha
  Plant response rating, Soybean: 20
soybean; 250 g ai/ha
  Plant response rating, Soybean: 25
Italian ryegrass; 31 g ai/ha
  Plant response rating, Ryegrass, Italian: 0
Italian ryegrass; 62 g ai/ha
  Plant response rating, Ryegrass, Italian: 20
Italian ryegrass; 125 g ai/ha
  Plant response rating, Ryegrass, Italian: 30
Italian ryegrass; 250 g ai/ha
  Plant response rating, Ryegrass, Italian: 95
Giant foxtail; 31 g ai/ha
  Plant response rating, Foxtail, Giant: 20
Giant foxtail; 62 g ai/ha
  Plant response rating, Foxtail, Giant: 95
Giant foxtail; 125 g ai/ha
  Plant response rating, Foxtail, Giant: 100
Giant foxtail; 250 g ai/ha
  Plant response rating, Foxtail, Giant: 100
cotton; 31 g ai/ha
  Plant response rating, Cotton: 0
cotton; 62 g ai/ha
  Plant response rating, Cotton: 10
cotton; 125 g ai/ha
  Plant response rating, Cotton: 15
cotton; 250 g ai/ha
  Plant response rating, Cotton: 20
Annual bluegrass; 31 g ai/ha
  Plant response rating, Bluegrass: 0
Annual bluegrass; 62 g ai/ha
  Plant response rating, Bluegrass: 75
Annual bluegrass; 125 g ai/ha
  Plant response rating, Bluegrass: 90
Annual bluegrass; 250 g ai/ha
  Plant response rating, Bluegrass: 100
chickweed; 31 g ai/ha
  Plant response rating (0 to 100), Chickweed: 50
chickweed; 62 g ai/ha
  Plant response rating, Chickweed: 65
chickweed; 125 g ai/ha
  Plant response rating, Chickweed: 90
chickweed; 250 g ai/ha
  Plant response rating, Chickweed: 90
millet; 31 g ai/ha
  Plant response rating, Millet: 0
millet; 62 g ai/ha
  Plant response rating, Millet: 25
millet; 125 g ai/ha
  Plant response rating, Millet: 20
millet; 250 g ai/ha
  Plant response rating, Millet: 100

— patent US20100298141A1, “SUBSTITUTED PYRIDINE N-OXIDE HERBICIDES” (E. I. DU PONT DE NEMOURS AND COMPANY, priority 2007, published 2010)
